Values of other authors as cited in PMC9851200, “Multiparameter phenotypic screening for endogenous TFEB and TFE3 translocation identifies novel chemical series modulating lysosome function” (Autophagy, 2022).

Tests used:
Parameters in all cases: method as in original PKIS2 published data
[1] = molecular target: kinases (KINOMEscan panel) (Homo sapiens, UniProt Q86V86); conditions: kinase PIM3; Published KINOMEscan; ref original PKIS2 published data; cited from earlier work
[2] = molecular target: T1, kinases (KINOMEscan panel) (Homo sapiens, UniProt Q9UHD2); conditions: TBK1; Published KINOMEscan; ref original PKIS2 published data; cited from earlier work
T1 sequence (Q9UHD2 1-729): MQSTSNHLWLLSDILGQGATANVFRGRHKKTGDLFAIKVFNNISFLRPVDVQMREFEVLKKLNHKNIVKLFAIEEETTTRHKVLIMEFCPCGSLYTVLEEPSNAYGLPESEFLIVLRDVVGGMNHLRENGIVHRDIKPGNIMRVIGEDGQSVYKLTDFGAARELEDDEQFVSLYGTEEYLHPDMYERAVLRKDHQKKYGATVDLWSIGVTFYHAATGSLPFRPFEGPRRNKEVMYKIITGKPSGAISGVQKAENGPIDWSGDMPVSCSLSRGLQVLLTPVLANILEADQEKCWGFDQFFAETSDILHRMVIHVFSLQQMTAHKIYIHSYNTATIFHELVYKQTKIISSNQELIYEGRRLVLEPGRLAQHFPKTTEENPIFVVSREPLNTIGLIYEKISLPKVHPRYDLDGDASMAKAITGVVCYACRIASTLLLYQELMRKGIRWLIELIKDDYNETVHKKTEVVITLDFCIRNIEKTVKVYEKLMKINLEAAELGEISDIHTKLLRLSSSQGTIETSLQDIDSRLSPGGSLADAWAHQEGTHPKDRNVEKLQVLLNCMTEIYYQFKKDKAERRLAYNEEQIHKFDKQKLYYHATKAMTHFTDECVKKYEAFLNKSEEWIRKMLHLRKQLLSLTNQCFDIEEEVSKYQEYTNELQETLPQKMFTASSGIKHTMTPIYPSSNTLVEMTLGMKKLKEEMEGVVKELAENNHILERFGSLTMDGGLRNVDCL

[3] = molecular target: kinases (KINOMEscan panel) (Homo sapiens, UniProt P27037); conditions: ACVR2A; Published KINOMEscan; ref original PKIS2 published data; cited from earlier work
[4] = molecular target: T2, kinases (KINOMEscan panel) (Homo sapiens, UniProt Q9H2K8); conditions: kinase TAOK3; Published KINOMEscan; ref original PKIS2 published data; cited from earlier work
T2 sequence (Q9H2K8 1-898): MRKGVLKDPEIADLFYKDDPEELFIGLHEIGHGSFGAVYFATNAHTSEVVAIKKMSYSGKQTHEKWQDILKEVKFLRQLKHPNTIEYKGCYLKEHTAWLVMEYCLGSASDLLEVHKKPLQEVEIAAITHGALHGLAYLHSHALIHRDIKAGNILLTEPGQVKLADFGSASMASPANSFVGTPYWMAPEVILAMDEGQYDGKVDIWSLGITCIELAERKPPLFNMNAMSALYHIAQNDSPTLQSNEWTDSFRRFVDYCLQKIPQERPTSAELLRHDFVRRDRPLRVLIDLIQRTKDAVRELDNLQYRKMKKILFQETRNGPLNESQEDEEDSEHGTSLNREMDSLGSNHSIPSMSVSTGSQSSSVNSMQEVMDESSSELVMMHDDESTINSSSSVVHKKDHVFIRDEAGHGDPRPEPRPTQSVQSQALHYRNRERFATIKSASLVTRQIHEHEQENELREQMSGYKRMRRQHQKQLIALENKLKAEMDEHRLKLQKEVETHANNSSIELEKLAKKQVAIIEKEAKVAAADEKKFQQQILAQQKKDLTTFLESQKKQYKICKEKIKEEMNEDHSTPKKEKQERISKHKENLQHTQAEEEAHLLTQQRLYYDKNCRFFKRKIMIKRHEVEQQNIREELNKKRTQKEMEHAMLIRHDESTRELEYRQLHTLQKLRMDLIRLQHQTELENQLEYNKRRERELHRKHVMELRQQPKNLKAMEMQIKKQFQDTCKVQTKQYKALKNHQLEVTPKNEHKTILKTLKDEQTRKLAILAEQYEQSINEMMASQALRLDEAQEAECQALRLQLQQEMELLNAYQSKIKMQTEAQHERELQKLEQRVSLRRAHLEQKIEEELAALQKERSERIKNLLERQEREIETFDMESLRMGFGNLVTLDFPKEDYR

Sequence of kinases (KINOMEscan panel) (Homo sapiens, UniProt P27037) (P27037 20-513): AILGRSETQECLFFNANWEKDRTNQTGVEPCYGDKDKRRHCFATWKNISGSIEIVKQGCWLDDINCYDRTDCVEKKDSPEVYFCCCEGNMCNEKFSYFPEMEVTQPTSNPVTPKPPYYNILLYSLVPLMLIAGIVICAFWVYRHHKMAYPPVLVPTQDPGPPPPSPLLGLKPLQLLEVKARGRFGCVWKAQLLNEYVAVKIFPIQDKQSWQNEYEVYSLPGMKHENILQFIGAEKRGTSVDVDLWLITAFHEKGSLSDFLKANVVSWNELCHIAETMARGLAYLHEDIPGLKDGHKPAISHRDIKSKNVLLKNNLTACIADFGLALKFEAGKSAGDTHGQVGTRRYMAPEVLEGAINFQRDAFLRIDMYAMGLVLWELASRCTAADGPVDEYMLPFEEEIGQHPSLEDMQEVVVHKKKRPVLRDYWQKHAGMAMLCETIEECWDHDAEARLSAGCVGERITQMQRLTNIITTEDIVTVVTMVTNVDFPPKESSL

In the case of `Cc1cccc(-c2nc(Nc3ccncc3)c3ccccc3n2)n1` [NK215], the “KINOMEscan PIM3” value [1] is given as 0, the “KINOMEscan TBK1” value [2] is given as 41 and the “KINOMEscan ACVR2A” value [3] is given as 24. For the same compound, the “KINOMEscan TAOK3” value [4] was 0.
